Data: BindingDB's records for doi:10.1016/j.bmcl.2004.04.026 (Morphochem, 2004)

Assays:
[1] = target: T1, Human immunodeficiency virus type 1 protease (Human immunodeficiency virus 1, UniProt Q72874); experiment: Inhibitory concentration against Protease
[2] = target: T1, Human immunodeficiency virus type 1 protease; experiment: Evaluated for inhibition of Protease after CLND/MS correction from the crude mixture
[3] = target: T1, Human immunodeficiency virus type 1 protease; experiment: Evaluated for inhibition of Protease after resynthesis and purification

Structure (SMILES)	IC50 [1]	IC50 [2]	IC50 [3]
COc1cc(CC2C(=O)OC(C)(C(=O)NC3CC3)C2=O)cc(OC)c1OC (configuration not stated) [3-Hydroxy-2-methyl-5-oxo-4-(3,4,5-trimethoxy-benzyl)-2,5-dihydro-furan-2-carboxylic acid cyclopropylamide]	> 1000 µM	–	–
COc1cc(CC2C(=O)OC(C)(C(=O)NC(C)(C)C)C2=O)cc(OC)c1OC (configuration not stated) [3-Hydroxy-2-methyl-5-oxo-4-(3,4,5-trimethoxy-benzyl)-2,5-dihydro-furan-2-carboxylic acid tert-butylamide]	> 1000 µM	–	–
C[C@@H](c1ccccc1)C1C(=O)O[C@](CCc2ccccc2)(C(=O)NCc2ccc(C(C)(C)C)cc2)C1=O (some centres not stated)	84 µM	1.2 µM	4.6 µM
CNC1C(=O)OC(CCc2ccccc2)(C(=O)NCC2CCCO2)C1=O (configuration not stated) [3-Hydroxy-4-methylamino-5-oxo-2-phenethyl-2,5-dihydro-furan-2-carboxylic acid (tetrahydro-furan-2-ylmethyl)-amide]	> 1000 µM	–	–
COc1cc(CC2C(=O)OC(CCc3ccccc3)(C(=O)NCC(C)(C)C)C2=O)cc(OC)c1OC (configuration not stated) [3-Hydroxy-5-oxo-2-phenethyl-4-(3,4,5-trimethoxy-benzyl)-2,5-dihydro-furan-2-carboxylic acid (2,2-dimethyl-propyl)-amide]	> 1000 µM	–	–
